A short description of this data set: 48 hours cytotoxicity assay (CellTiter-Glo), liver toxicity. Format: cell-based, human. The text has this: In some embodiments, a peptide provided herein has hepatic toxicity that is at least 10% (e.g., at least 15%, at least 20%, at least 25%, at least 30%, at least 35%, at least 40%, at least 45%, at least 50%, at least 55%, at least 60%, at least 65%, at least 65%, at least 70%, at least 75%, at least 80%, at least 85%, at least 90%, at least 95%, at least 99%) lower than the hepatic toxicity of the reference. The hepatic toxicity of a peptide can be measured in vitro using a human liver cells (e.g., HepG2) toxicity assay.
Cell culture: RPTEC were maintained in MEM media supplemented with growth factors. HEPG2 cell line was maintained in Eagle's Minimum Essential Medium (EMEM) supplemented with fetal bovine serum to a final concentration of 10%.
48 hours cytotoxicity assay: Cells were plated in a 96-well format, and after 4 hour incubation to allow attachment, serial dilutions of StAMPs from a 5 mg/mL water stock, or vehicle, were then added to the cells in a final volume of 100 μl. After incubating at 37° C. for 48 hours, 100 μl of CellTiter-Glo® reagent was added to the cells, and the plates were incubated 10 minutes at room temperature. Luminescence was then measured on a microplate reader.
Renal toxicity was measured after 90 minutes of incubation, while liver toxicity was measured after 48 hours of incubation with StAMPs. N/A=not tested.

Setting [1] is: 48 hours of incubation, CellTiter-Glo, read-out: Inhibitory Concentration at 50% Cytotoxicity (IC50) Human Liver Cells (HepG2).

Converted amounts (≈) assume the structure as drawn. Where two headings read alike, the source gives them in different places. Starred links: 1 amine or outer side, 2 acyl side, 3 side chain; linkers in the order of their positions; H or OH if unused. Positions of bridges follow the written chain, without caps; N, C: chain ends. Residues, ends and D or L forms follow the SMILES beside them. 2,2'Bipyridine(5,5'-diCH2) = c1cc(-c2ccc(C[*:2])cn2)ncc1C[*:1]; Biphenyl(4,4'-CH2)2 = c1cc(-c2ccc(C[*:2])cc2)ccc1C[*:1]; Naphthalene(2,6-diCH2) = c1cc2cc(C[*:2])ccc2cc1C[*:1]; mXylylene = c1cc(C[*:1])cc(C[*:2])c1; pXylylene = c1cc(C[*:2])ccc1C[*:1]; X1 = C(=CC[*:2])C[*:1]

As to `CC[C@H](C)[C@H](NC(=O)[C@H](CC(C)C)NC(=O)[C@H](CC(C)C)NC(=O)[C@H](CC(N)=O)NC(=O)[C@H](CCCCN)NC(=O)[C@@H](NC(=O)[C@H](CCCCN)NC(=O)[C@H](CCCCN)NC(=O)CNC(=O)[C@H](C)NC(=O)[C@@H]1CSCc2cccc(c2)CSC[C@H](NC(=O)CN)C(=O)N[C@@H](Cc2ccccc2)C(=O)N[C@@H](CO)C(=O)N[C@@H](CCCCN)C(=O)N1)[C@@H](C)CC)C(=O)N[C@@H](CO)C(=O)NCC(=O)N[C@@H](CC(C)C)C(=O)N[C@@H](CCCCN)C(=O)NCC(N)=O` [compound 46] (H-GCFSKCAGKKIKNLLISGLKG-NH2; linker 2-6 via mXylylene; N-terminus assumed), the IC50 was 201 mg/L (≈ 88.7 µM).
Same read-out and setting: the same measure for `CC[C@H](C)[C@H](NC(=O)[C@H](CC(C)C)NC(=O)[C@H](CC(C)C)NC(=O)[C@H](CC(N)=O)NC(=O)[C@H](CCCCN)NC(=O)[C@@H](NC(=O)[C@H](CCCCN)NC(=O)[C@H](CCCCN)NC(=O)CNC(=O)[C@H](C)NC(=O)[C@@H]1CSCc2ccc(cc2)CSC[C@H](NC(=O)CN)C(=O)N[C@@H](Cc2ccccc2)C(=O)N[C@@H](CO)C(=O)N[C@@H](CCCCN)C(=O)N1)[C@@H](C)CC)C(=O)N[C@@H](CO)C(=O)NCC(=O)N[C@@H](CC(C)C)C(=O)N[C@@H](CCCCN)C(=O)NCC(N)=O` [compound 47] (H-GCFSKCAGKKIKNLLISGLKG-NH2; linker 2-6 via pXylylene; N-terminus assumed): 402 mg/L (≈ 177 µM); for `CC[C@H](C)[C@H](NC(=O)[C@H](CC(C)C)NC(=O)[C@H](CC(C)C)NC(=O)[C@H](CC(N)=O)NC(=O)[C@H](CCCCN)NC(=O)[C@@H](NC(=O)[C@H](CCCCN)NC(=O)[C@H](CCCCN)NC(=O)CNC(=O)[C@H](C)NC(=O)[C@@H]1CSCC=CCSC[C@H](NC(=O)CN)C(=O)N[C@@H](Cc2ccccc2)C(=O)N[C@@H](CO)C(=O)N[C@@H](CCCCN)C(=O)N1)[C@@H](C)CC)C(=O)N[C@@H](CO)C(=O)NCC(=O)N[C@@H](CC(C)C)C(=O)N[C@@H](CCCCN)C(=O)NCC(N)=O` [compound 48] (H-GCFSKCAGKKIKNLLISGLKG-NH2; linker 2-6 via X1; N-terminus assumed): > 800 mg/L.
In turn, `CC[C@H](C)[C@H](NC(=O)[C@H](CC(C)C)NC(=O)[C@H](CC(C)C)NC(=O)[C@H](CC(N)=O)NC(=O)[C@H](CCCCN)NC(=O)[C@@H](NC(=O)[C@H](CCCCN)NC(=O)[C@H](CCCCN)NC(=O)[C@@H]1CSCc2ccc(cc2)-c2ccc(cc2)CSC[C@H](N)C(=O)N[C@@H]([C@@H](C)CC)C(=O)N[C@@H](Cc2ccccc2)C(=O)N[C@@H](CO)C(=O)N[C@@H](CCCCN)C(=O)N[C@@H](CC(C)C)C(=O)N[C@@H](C)C(=O)N1)[C@@H](C)CC)C(=O)N[C@@H](CO)C(=O)NCC(=O)N[C@@H](CC(C)C)C(=O)N[C@@H](CCCCN)C(=O)NCC(N)=O` [compound 51] (H-CIFSKLACKKIKNLLISGLKG-NH2; linker 1-8 via Biphenyl(4,4'-CH2)2; N-terminus assumed) gave an IC50 of 102 mg/L (≈ 41.5 µM).
Still for that read-out and setting: the same measure for `CC[C@H](C)[C@H](NC(=O)CN)C(=O)N[C@@H](Cc1ccccc1)C(=O)N[C@H]1CSCc2ccc(cc2)-c2ccc(cc2)CSC[C@@H](C(=O)N[C@@H](CCCCN)C(=O)N[C@@H](CC(N)=O)C(=O)N[C@@H](CC(C)C)C(=O)N[C@@H](CC(C)C)C(=O)N[C@H](C(=O)N[C@@H](CO)C(=O)NCC(=O)N[C@@H](CC(C)C)C(=O)N[C@@H](CCCCN)C(=O)NCC(N)=O)[C@@H](C)CC)NC(=O)[C@H](CCCCN)NC(=O)[C@H](CCCCN)NC(=O)CNC(=O)[C@H](C)NC(=O)[C@H](CC(C)C)NC(=O)[C@H](CCCCN)NC1=O` [compound 59] (H-GIFCKLAGKKCKNLLISGLKG-NH2; linker 4-11 via Biphenyl(4,4'-CH2)2; N-terminus assumed): 23 mg/L (≈ 9.71 µM).
For the molecule `CC[C@H](C)[C@H](NC(=O)CN)C(=O)N[C@@H](Cc1ccccc1)C(=O)N[C@@H](CO)C(=O)N[C@H]1CSCc2ccc(nc2)-c2ccc(cn2)CSC[C@@H](C(=O)N[C@@H](CC(N)=O)C(=O)N[C@@H](CC(C)C)C(=O)N[C@@H](CC(C)C)C(=O)N[C@H](C(=O)N[C@@H](CO)C(=O)NCC(=O)N[C@@H](CC(C)C)C(=O)N[C@@H](CCCCN)C(=O)NCC(N)=O)[C@@H](C)CC)NC(=O)[C@H]([C@@H](C)CC)NC(=O)[C@H](CCCCN)NC(=O)[C@H](CCCCN)NC(=O)CNC(=O)[C@H](C)NC(=O)[C@H](CC(C)C)NC1=O` [compound 60] (H-GIFSCLAGKKICNLLISGLKG-NH2; linker 5-12 via 2,2'Bipyridine(5,5'-diCH2)), under setting [1], the IC50 amounted to 29 mg/L (≈ 12.5 µM).
Take `CC[C@H](C)[C@H](NC(=O)CN)C(=O)N[C@@H](Cc1ccccc1)C(=O)N[C@@H](CO)C(=O)N[C@H]1CSCc2ccc(cc2)-c2ccc(cc2)CSC[C@@H](C(=O)N[C@@H](CC(N)=O)C(=O)N[C@@H](CC(C)C)C(=O)N[C@@H](CC(C)C)C(=O)N[C@H](C(=O)N[C@@H](CO)C(=O)NCC(=O)N[C@@H](CC(C)C)C(=O)N[C@@H](CCCCN)C(=O)NCC(N)=O)[C@@H](C)CC)NC(=O)[C@H]([C@@H](C)CC)NC(=O)[C@H](CCCCN)NC(=O)[C@H](CCCCN)NC(=O)CNC(=O)[C@H](C)NC(=O)[C@H](CC(C)C)NC1=O` [compound 61] (H-GIFSCLAGKKICNLLISGLKG-NH2; linker 5-12 via Biphenyl(4,4'-CH2)2; N-terminus assumed): the IC50 was > 200 mg/L.
In the case of `CC[C@H](C)[C@H](NC(=O)CN)C(=O)N[C@@H](Cc1ccccc1)C(=O)N[C@@H](CO)C(=O)N[C@H]1CSCc2ccc3cc(ccc3c2)CSC[C@@H](C(=O)N[C@@H](CC(N)=O)C(=O)N[C@@H](CC(C)C)C(=O)N[C@@H](CC(C)C)C(=O)N[C@H](C(=O)N[C@@H](CO)C(=O)NCC(=O)N[C@@H](CC(C)C)C(=O)N[C@@H](CCCCN)C(=O)NCC(N)=O)[C@@H](C)CC)NC(=O)[C@H]([C@@H](C)CC)NC(=O)[C@H](CCCCN)NC(=O)[C@H](CCCCN)NC(=O)CNC(=O)[C@H](C)NC(=O)[C@H](CC(C)C)NC1=O` [compound 62] (H-GIFSCLAGKKICNLLISGLKG-NH2; linker 5-12 via Naphthalene(2,6-diCH2)), the IC50 under setting [1] was found to be 81 mg/L (≈ 35.4 µM).
Consider `CC[C@H](C)[C@H](NC(=O)CN)C(=O)N[C@@H](Cc1ccccc1)C(=O)N[C@@H](CO)C(=O)N[C@@H](CCCCN)C(=O)N[C@H]1CSCc2ccc(nc2)-c2ccc(cn2)CSC[C@@H](C(=O)N[C@@H](CC(C)C)C(=O)N[C@@H](CC(C)C)C(=O)N[C@H](C(=O)N[C@@H](CO)C(=O)NCC(=O)N[C@@H](CC(C)C)C(=O)N[C@@H](CCCCN)C(=O)NCC(N)=O)[C@@H](C)CC)NC(=O)[C@H](CCCCN)NC(=O)[C@H]([C@@H](C)CC)NC(=O)[C@H](CCCCN)NC(=O)[C@H](CCCCN)NC(=O)CNC(=O)[C@H](C)NC1=O` [compound 63] (H-GIFSKCAGKKIKCLLISGLKG-NH2; linker 6-13 via 2,2'Bipyridine(5,5'-diCH2)), for which the IC50 under setting [1] was 44 mg/L (≈ 18.8 µM).
Turning to `CC[C@H](C)[C@H](NC(=O)CN)C(=O)N[C@@H](Cc1ccccc1)C(=O)N[C@@H](CO)C(=O)N[C@@H](CCCCN)C(=O)N[C@@H](CC(C)C)C(=O)N[C@@H](C)C(=O)N[C@H]1CSCc2ccc(cc2)-c2ccc(cc2)CSC[C@@H](C(=O)N[C@H](C(=O)N[C@@H](CO)C(=O)NCC(=O)N[C@@H](CC(C)C)C(=O)N[C@@H](CCCCN)C(=O)NCC(N)=O)[C@@H](C)CC)NC(=O)[C@H](CC(C)C)NC(=O)[C@H](CC(N)=O)NC(=O)[C@H](CCCCN)NC(=O)[C@H]([C@@H](C)CC)NC(=O)[C@H](CCCCN)NC(=O)[C@H](CCCCN)NC1=O` [compound 68] (H-GIFSKLACKKIKNLCISGLKG-NH2; linker 8-15 via Biphenyl(4,4'-CH2)2; N-terminus assumed), the IC50 amounted to 8 mg/L (≈ 3.33 µM).

(Values after patent publication US20240391965A1, “STAPLED ANTIMICROBIAL PEPTIDES (STAMPS) AND USES THEREOF” (Lytica Therapeutics, Inc., priority 2021, published 2024).)
